Several values for one entry are separate records, joined by “and”; a condition that tells them apart may be missing. Identical values can stand only once. Inconclusive results and toxic doses are left out. Cut-off read from the data, not from the text of the source: active = T/C of 150% or more; inactive = T/C below 125%.
Test system: L1210 leukemia ip in BDF1 mice, survival T/C
Assay: NCI In Vivo Anticancer Drug Screen. Data for tumor model L1210 Leukemia (intraperitoneal) in B6D2F1 (BDF1) mice
Settings: endpoint: mean survival time, higher = longer survival
Procedure, shortened: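 Tumor cells were implanted, animals were treated, and survival was followed. The result divides the treated measurement by the vehicle-control measurement.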

[1] = dose: 100.0 mg/kg/injection, schedule: Q01DX001 (ip), vehicle: saline
[2] = dose: 200.0 mg/kg/injection, schedule: Q01DX001 (ip), vehicle: saline
[3] = dose: 100.0 mg/kg/injection, schedule: Q04DX003 (ip), vehicle: saline with Tween-80
[4] = dose: 200.0 mg/kg/injection, schedule: Q04DX003 (ip), vehicle: saline with Tween-80
[5] = dose: 400.0 mg/kg/injection, schedule: Q04DX003 (ip), vehicle: saline with Tween-80
[6] = dose: 100.0 mg/kg/injection, schedule: Q01DX009 (ip), vehicle: Klucel (hydroxypropylcellulose) (HPC)
[7] = dose: 200.0 mg/kg/injection, schedule: Q01DX009 (ip), vehicle: Klucel (hydroxypropylcellulose) (HPC)
[8] = dose: 400.0 mg/kg/injection, schedule: Q01DX009 (ip), vehicle: Klucel (hydroxypropylcellulose) (HPC)
[9] = dose: 50.0 mg/kg/injection, schedule: Q01DX001 (ip), vehicle: saline

Measured: T/C

O=C1c2ccccc2C(=O)c2c(NC(=O)C(Cl)CCl)cccc21 (centres undefined)
inactive: dose: 75.0 mg/kg/injection, schedule: Q01DX001 (ip), vehicle: saline 94 % of control | dose: 150.0 mg/kg/injection, schedule: Q01DX001 (ip), vehicle: saline 90 % of control and 92 % of control | dose: 300.0 mg/kg/injection, schedule: Q01DX001 (ip), vehicle: saline 97 % of control

Cc1sc2ccccc2[n+]1CCCCS(=O)(=O)O
inactive: [1] 92 % of control | [2] 97 % of control | dose: 400.0 mg/kg/injection, schedule: Q01DX001 (ip), vehicle: saline 97 % of control

O=C1C(Cl)=C(Nc2ccccc2Cl)C(=O)C(Cl)=C1Nc1ccccc1Cl
inactive: dose: 50.0 mg/kg/injection, schedule: Q01DX001 (ip), vehicle: carboxymethylcellulose (CMC) 101 % of control | dose: 100.0 mg/kg/injection, schedule: Q01DX001 (ip), vehicle: carboxymethylcellulose (CMC) 101 % of control | [3] 95 % of control | dose: 200.0 mg/kg/injection, schedule: Q01DX001 (ip), vehicle: carboxymethylcellulose (CMC) 90 % of control | [4] 98 % of control | dose: 400.0 mg/kg/injection, schedule: Q01DX001 (ip), vehicle: carboxymethylcellulose (CMC) 95 % of control | [5] 98 % of control

O=COCCc1ccccc1
inactive: [6] 102 % of control | [7] 102 % of control | [8] 97 % of control

O=C1NCCCCN1
inactive: [3] 100 % of control | [4] 100 % of control | [5] 101 % of control

CSc1ccccc1C1CCCCCC1OS(C)(=O)=O (centres undefined)
inactive: dose: 12.5 mg/kg/injection, schedule: Q04DX003 (ip), vehicle: Klucel (hydroxypropylcellulose) (HPC) 109 % of control | dose: 25.0 mg/kg/injection, schedule: Q01DX009 (ip), vehicle: Klucel (hydroxypropylcellulose) (HPC) 109 % of control | dose: 25.0 mg/kg/injection, schedule: Q04DX003 (ip), vehicle: Klucel (hydroxypropylcellulose) (HPC) 106 % of control | dose: 50.0 mg/kg/injection, schedule: Q01DX009 (ip), vehicle: Klucel (hydroxypropylcellulose) (HPC) 107 % of control | dose: 50.0 mg/kg/injection, schedule: Q04DX003 (ip), vehicle: Klucel (hydroxypropylcellulose) (HPC) 102 % of control | dose: 100.0 mg/kg/injection, schedule: Q01DX001 (ip), vehicle: Klucel (hydroxypropylcellulose) (HPC) 105 % of control | [6] 102 % of control | dose: 100.0 mg/kg/injection, schedule: Q04DX003 (ip), vehicle: Klucel (hydroxypropylcellulose) (HPC) 107 % of control

O=[N+]([O-])c1ccc(OCc2ccccc2S(=O)(=O)F)c(Cl)c1
inactive: dose: 100.0 mg/kg/injection, schedule: Q04DX003 (ip), vehicle: gum acacia 92 % of control | dose: 200.0 mg/kg/injection, schedule: Q04DX003 (ip), vehicle: gum acacia 93 % of control | dose: 400.0 mg/kg/injection, schedule: Q04DX003 (ip), vehicle: gum acacia 100 % of control

CC1CCC2=CC(=O)CCC2(C)C1C (centres undefined)
inactive: dose: 100.0 mg/kg/injection, schedule: Q01DX009 (ip), vehicle: saline with Tween-80 101 % of control | dose: 200.0 mg/kg/injection, schedule: Q01DX009 (ip), vehicle: saline with Tween-80 96 % of control | dose: 400.0 mg/kg/injection, schedule: Q01DX009 (ip), vehicle: saline with Tween-80 91 % of control

Nc1ccccc1C(=O)N/N=C/c1cccc(O)c1
inactive: dose: 100.0 mg/kg/injection, schedule: Q04DX002 (ip), vehicle: Klucel (hydroxypropylcellulose) (HPC) 98 % of control | dose: 200.0 mg/kg/injection, schedule: Q04DX002 (ip), vehicle: Klucel (hydroxypropylcellulose) (HPC) 103 % of control | dose: 400.0 mg/kg/injection, schedule: Q04DX002 (ip), vehicle: Klucel (hydroxypropylcellulose) (HPC) 113 % of control

O=C1CN(C2OC(CO)C(O)C2O)C(=O)NC1=O (centres undefined)
inactive: dose: 132.0 mg/kg/injection, schedule: Q01DX Z (ip), vehicle: carboxymethylcellulose (CMC) 107 % of control | dose: 200.0 mg/kg/injection, schedule: Q01DX Z (ip), vehicle: carboxymethylcellulose (CMC) 110 % of control | dose: 299.0 mg/kg/injection, schedule: Q01DX Z (ip), vehicle: carboxymethylcellulose (CMC) 124 % of control | dose: 449.0 mg/kg/injection, schedule: Q01DX Z (ip), vehicle: carboxymethylcellulose (CMC) 107 % of control

CNC(=S)SC
inactive: [9] 90 % of control | [1] 98 % of control | [2] 96 % of control

O/N=C/c1ccc(Cl)cc1
inactive: [9] 97 % of control | [1] 100 % of control | [2] 94 % of control

O=C(Nc1ccccc1C(=O)N/N=C/CCc1ccccc1)c1ccccc1Cl
inactive: [6] 101 % of control | [7] 97 % of control | [8] 92 % of control

CCCCN(CCCC)CCCNc1c2c(nc3ccccc13)CCCC2
inactive: dose: 5.0 mg/kg/injection, schedule: Q01DX001 (ip), vehicle: saline 95 % of control | dose: 10.0 mg/kg/injection, schedule: Q01DX001 (ip), vehicle: saline 95 % of control | dose: 20.0 mg/kg/injection, schedule: Q01DX001 (ip), vehicle: saline 93 % of control | dose: 40.0 mg/kg/injection, schedule: Q01DX001 (ip), vehicle: saline 89 % of control | [9] 91 % of control | dose: 80.0 mg/kg/injection, schedule: Q01DX001 (ip), vehicle: saline 93 % of control

N=C(N)c1ccc(-n2cc3cc(C(=N)N)ccc3n2)cc1
inactive: dose: 6.25 mg/kg/injection, schedule: Q04DX003 (ip), vehicle: saline 96 % of control and 110 % of control | dose: 12.5 mg/kg/injection, schedule: Q04DX003 (ip), vehicle: saline 100 % of control | dose: 25.0 mg/kg/injection, schedule: Q04DX003 (ip), vehicle: saline 106 % of control and 91 % of control

CCCCCCCCCCCCCCCCOC(=O)C[n+]1ccc(C(N)=O)cc1
inactive: dose: 100.0 mg/kg/injection, schedule: Q04DX003 (ip), vehicle: acetone 97 % of control | dose: 200.0 mg/kg/injection, schedule: Q04DX003 (ip), vehicle: acetone 90 % of control

CC1(C)OC2C(COC(N)=O)OC(n3cnc4c(=O)[nH]c(N)nc43)C2O1 (centres undefined)
inactive: dose: 100.0 mg/kg/injection, schedule: Q01DX005 (ip), vehicle: saline 105 % of control | dose: 200.0 mg/kg/injection, schedule: Q01DX005 (ip), vehicle: saline 103 % of control

O=[N+]([O-])c1ccc2c(c1)c(-c1cccc3ccccc13)nc1ccccc12
inactive: [3] 95 % of control | [4] 93 % of control | [5] 91 % of control

Nc1cc(=O)[nH]c(=S)n1-c1ccc(Br)cn1
inactive: [3] 98 % of control | [4] 86 % of control | [5] 104 % of control

CC(=O)C(O)N1C(=O)C=CC1=O (centres undefined)
inactive: dose: 1.25 mg/kg/injection, schedule: Q01DX009 (ip), vehicle: saline 103 % of control | dose: 1.25 mg/kg/injection, schedule: Q#A X018 (ip), vehicle: saline 103 % of control | dose: 2.5 mg/kg/injection, schedule: Q01DX009 (ip), vehicle: saline 100 % of control | dose: 2.5 mg/kg/injection, schedule: Q04DX003 (ip), vehicle: water 104 % of control | dose: 2.5 mg/kg/injection, schedule: Q## X006 (ip), vehicle: water 104 % of control | dose: 2.5 mg/kg/injection, schedule: Q#A X018 (ip), vehicle: saline 102 % of control | dose: 5.0 mg/kg/injection, schedule: Q01DX009 (ip), vehicle: saline 91 % of control | dose: 5.0 mg/kg/injection, schedule: Q04DX003 (ip), vehicle: water 102 % of control | dose: 5.0 mg/kg/injection, schedule: Q## X006 (ip), vehicle: water 102 % of control | dose: 5.0 mg/kg/injection, schedule: Q#A X018 (ip), vehicle: saline 100 % of control | dose: 10.0 mg/kg/injection, schedule: Q## X006 (ip), vehicle: water 104 % of control | dose: 10.0 mg/kg/injection, schedule: Q#A X018 (ip), vehicle: saline 100 % of control

CCOC(=O)C1(O)c2ccccc2NC(=S)N1CC(Br)CBr (centres undefined)
inactive: dose: 100.0 mg/kg/injection, schedule: Q01DX009 (ip), vehicle: saline 100 % of control | dose: 100.0 mg/kg/injection, schedule: Q04DX002 (ip), vehicle: saline 90 % of control | dose: 200.0 mg/kg/injection, schedule: Q01DX009 (ip), vehicle: saline 93 % of control | dose: 200.0 mg/kg/injection, schedule: Q04DX002 (ip), vehicle: saline 97 % of control | dose: 400.0 mg/kg/injection, schedule: Q01DX009 (ip), vehicle: saline 102 % of control | dose: 400.0 mg/kg/injection, schedule: Q04DX002 (ip), vehicle: saline 103 % of control

CCOC(=O)C(Cc1c[nH]c2ccccc12)(NC=O)C(=O)OCC
inactive: [6] 91 % of control | [7] 100 % of control | [8] 91 % of control
